The source of these data is article PMC7501995 (Cell metabolism, 2020).

Test [1] relates to C57BL/6J mice rendered diabetic by multiple low-dose STZ. Kind of test: Multiple low-dose STZ-induced diabetes in C57BL/6J mice. It is filed as in vivo, mouse. The settings on record: STZ mice.
Another test relates to human subjects with T1D. The settings on record: ref Ovalle et al., 2018; cited from earlier work.

SMILES strings stand for the structures.

As to `OC[C@H]1O[C@@H](c2ccc(Cl)c(Cc3ccc(O[C@H]4CCOC4)cc3)c2)[C@H](O)[C@@H](O)[C@@H]1O` [empagliflozin, reference compound], the glucose homeostasis result in test [1] (empagliflozin 10 mg/kg/day in drinking water) is given as “improved glucose homeostasis”. With `COc1ccc(CCN(C)CCCC(C#N)(c2ccc(OC)c(OC)c2)C(C)C)cc1OC` (stereo not drawn) [verapamil], the “effect in randomized controlled trial in human subjects with T1D” value in the test on human subjects with T1D is reported as “beneficial effects”. Regarding `CN(C)C(=N)N=C(N)N` [metformin, reference compound], in test [1] (metformin 250 mg/kg/day in drinking water), the glucose homeostasis result is “improved glucose homeostasis”.
